One experiment addresses T1, p38 MAPK/MK5 (Homo sapiens, UniProt Q16539).
T1 construct: purchased Carna (p38α); Abcam (MK5) 04-152; 217826
As to the kind of experiment: In vitro activity assay of p38 MAPK/MK5 (Z-LYTE kinase assay kit). The experiment is classed as biochemical. The settings on record: active p38α, inactive MK5, Ser/Thr 4; 4-hour reaction at 20° C. An outline of the steps:
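Z-LYTE FRET kinase assay, compound from […] top concentration in 1% DMSO, 5-fold serial dilution over 8 points in duplicate. Kinase reaction 4 h at 20° C, then development reagent 1 h at room temperature before stop. Emission ratio (Ex 400, Em 445/520 nm); IC50 from concentration-effect curve fit.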

For another experiment, the target named is T2, p38 MAPK/ATF2 (Homo sapiens, UniProt Q16539).
T2 construct: purchased Carna Biosciences (p38α); Sino Biological (ATF2) 04-152; 11599-H20B
As to the kind of experiment: In vitro activity assay of p38 MAPK/ATF2 (HTRF). The experiment is classed as biochemical. As to conditions: p38α, Human ATF2 Protein, ATP; 35 min at 20° C. On the procedure:
The inhibitory effect of the compound on p38a-catalyzed ATF2 was evaluated by the HTRF method. The test compound was dissolved in DMSO to obtain a 10 mM stock solution and stored at −20° C. for future use. The initial concentration of the compound was 10 μM, with 0.25% DMSO, 5-fold serial dilution, 8 concentrations, and duplicate wells. The reaction buffer, consisting of 40 mM Tris pH 7.5, 20 mM MgCl2, 0.1 mg/mL BSA, and 50 μM DTT, was used to prepare 3.5×p38α (MAPK14, Carna Biosciences, 04-152) protein working solution, 3.5×Human ATF2 Protein (Sino Biological, 11599-H20B) working solution, and 3.5×ATP working solution. The reaction was terminated with 10 mM EDTA. The final 14 μL reaction system was performed in a 96-well plate (cisbio, 66PL96025), containing 0.29 ng/μL p38a, […] Human ATF2 Protein, and 25 µM ATP. After reacting at 20° C. for 35 min, the pre-prepared antibody solution (cibio, 63ADK015PEG, Phospho-ATF2 Eu Cryptate antibody, Phospho-ATF2 d2 antibody, diluted 40-fold with Detection buffer) was added to each well and incubated overnight at room temperature. The samples were then measured using a microplate reader (HTRF compatible reader). The concentration-effect curve was fitted using GraphPad Prism 8 software, and the compound concentration resulting in 50% inhibition, IC50, was calculated.

pIC50: −log10 of the molar value.

T1 sequence (Q16539 whole entry): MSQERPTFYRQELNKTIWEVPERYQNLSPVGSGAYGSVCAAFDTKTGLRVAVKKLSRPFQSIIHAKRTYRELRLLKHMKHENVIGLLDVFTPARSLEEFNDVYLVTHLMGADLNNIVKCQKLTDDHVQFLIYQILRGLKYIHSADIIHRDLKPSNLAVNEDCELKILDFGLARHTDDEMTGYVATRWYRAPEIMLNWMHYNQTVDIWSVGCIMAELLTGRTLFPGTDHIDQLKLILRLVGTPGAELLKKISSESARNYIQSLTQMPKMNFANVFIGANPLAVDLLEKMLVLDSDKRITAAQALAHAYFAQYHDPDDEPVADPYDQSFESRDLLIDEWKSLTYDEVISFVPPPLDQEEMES

On to `CNC(=O)c1cccc(-c2ncc(C)c(-n3c(C)cc(OCc4ncc(F)cc4F)c(Cl)c3=O)c2F)c1` [Compound 31-P1], for which the pIC50 was 5.36 at p38 MAPK/MK5 and 5.73 against p38 MAPK/ATF2.

These data come from US20260217652A1, “PHENYL-SUBSTITUTED HETEROARYL COMPOUND AND PHARMACEUTICAL COMPOSITION COMPRISING SAME, PREPARATION METHOD THEREFOR AND USE THEREOF” (SHANGHAI MEIYUE BIOTECH DEVELOPMENT CO., LTD., priority 2023, published 2026).
